The subject of this test is Candida albicans. As to the kind of experiment: Antifungal activity against Candida albicans B311 after 24 to 48 hrs by twofold serial dilution method. Format: functional.

Values after ≈ are worked out from the molar mass of the structure shown. Active and inactive are the calls of the source. No cut-off for these calls is given here.

For orientation: MIC means the least concentration at which growth counts as inhibited. `Cc1ccnc2c1-c1ccccc1C2=O`: inhibition of growth (MIC) required 3.12 µg/mL (≈ 16 µM).

For `Cc1ccnc2c1C(=O)c1ccccc1-2`, the result was Active. `C[C@@H]1[C@H](O)[C@@H](C)/C=C/C=C/C=C/C=C/C=C/C=C/C=C/[C@H](O[C@@H]2O[C@H](C)[C@@H](O)[C@H](N)[C@@H]2O)C[C@@H]2O[C@](O)(C[C@@H](O)C[C@@H](O)[C@H](O)CC[C@@H](O)C[C@@H](O)CC(=O)O[C@H]1C)C[C@H](O)[C@H]2C(=O)O` [AMPHOTERICIN B]: the MIC turned out to be 0.39 µg/mL (≈ 0.422 µM). Same read-out and setting: in the case of `c1ccc2c(c1)-c1nccc3ccnc-2c13` [EUPOLAURIDINE] it was 1.56 µg/mL (≈ 7.64 µM).
